Test: Stability of hydroxyurea on removal of citric acid from the composition
Format: physicochemical
Conditions: removal of the stabilizer citric acid from the composition
Description: The commercially available hydroxyurea tablets contain citric acid.

stability of hydroxyurea: not significantly affected
Compound: NC(=O)NO [hydroxyurea]

From patent US20090317466A1, “Fixed dose pharmaceutical composition comprising hyroxyurea and didanosine” (priority 2008, published 2009)
